“And” between values parts separate entries of the source, which are not always exact repeats. Equal values may be shown once.
Legend:
[1] = Plasma modafinil concentration in dogs after single oral dose of lots with different particle size; type: in vivo; settings: single oral dose of 200 mg, capsule, 0 to 36 hours
Procedure: Given the disparity in results between the foreign and United States studies using what was presumed to be “identical” modafinil, additional non-human analyses were necessary prior to continuation of human clinical trials. Accordingly, animal studies in dogs were carried out to determine the in vivo pharmacokinetics of modafinil with different average particle size diameters, roughly designated as having “small” (Lot L-1) and “large” (Lots E-B and E-D) median particle sizes. Nine male dogs were randomly assigned, according to body weight to three dose groups. Each group was given a single oral dose of 200 of mg modafinil weekly for three weeks in a randomized, cross-over design, as described in Table 2.
After each weekly dose, blood samples (2 ml) were drawn from all animals by venepuncture predose (within one hour of dosing), and at 0.5, 1, 2, 3, 4, 6, 8, 10, 12, 18, 24, and 36 hours post-dose. Blood samples were collected in heparinized (lithium heparin) test tubes and centrifuged at 2,500 to 3,000 rpm. The plasma was drawn off with a glass pipette, and stored frozen (−20° C.) until analyzed. The plasma concentration of modafinil, and its acid and sulfone metabolites were simultaneously determined by high-pressure liquid chromatography, according to the method of Moachon et al. (J. Chromatag. B 654:91 (1994)).

healthy males = assay: First United States Phase I double-blind ascending dose clinical study; type: in vivo; settings: humans, oral, 800 mg/day dose level
From the text: While significant testing of modafinil had already been conducted outside the United States, new drug candidates, such as modafinil, typically undergo clinical research in the United States in order to corroborate the information obtained in foreign studies. The first United States clinical evaluation of modafinil was a double-blind, ascending dose study involving oral administration of modafinil to healthy males (i.e., physically and mentally healthy male subjects 18 to 50 years of age; average body weight of −10% to +15% of normal weight for age, height, frame and sex; 2101).
The planned doses for the first United States clinical trial were 200, 400, 600, 800, 1000, 1200 and 1400 mg/day of modafinil or placebo. These dose levels were based upon the safety profile observed during the foreign clinical testing of modafinil. Subsequent doses were given only when it was determined that the previously administered dose was safe and well tolerated. For example, the safety data for the 200 mg study dose was reviewed and assessed before other volunteers received the 400 mg dose.
In this first United States Phase I clinical study, modafinil from Lot L-1 was utilized. Complete data were obtained for three of the seven modafinil dose levels intended for testing, i.e., 200, 400, and 600 mg/day. […] These symptoms resolved without treatment or sequelae following drug discontinuation. […]

[2] = Dissolution rate of modafinil particles in deionized water (first experiment); type: physicochemical; settings: 50 mg in 500 ml deionized water, stirred, 0-60 minutes, HPLC; L-1 compared with E-D
Procedure: In the first experiment, 500 ml of deionized water was put in a 1-liter beaker and 50 mg of E-D or L-1 was added. The suspension was stirred constantly with a 5 cm Teflon-coated magnetic stir bar and a magnetic stir plate (Thermolyne model #546725). Samples of 1 ml each were taken at times 0, 1, 5, 10, 15, 20, 25, 30, 40, 50, and 60 minutes, with each sample being replaced with 1 ml of deionized water. The stir plate speed setting was “2” for the first 20 minutes, and “7” from 20 to 60 minutes Each sample was immediately filtered through a 0.45 μm filter, to remove undissolved particles. The filtered samples were assayed for modafinil, by high performance liquid chromatography, based upon the method of Moachon et al. (J. Chromatag. B 654:91 (1994)).

[3] = Modafinil particle size analysis, Hiac/Royco Model 9064 sizing counter; type: physicochemical; settings: for MODAFINIL PARTICLE DIAMETER MEAN / MODAFINIL PARTICLE DIAMETER MEDIAN / MODAFINIL PARTICLE DIAMETER MODE: Hiac/Royco Model 9064, n = 4, +/− standard deviation; for STD DEVIATION BETWEEN MEAN, MEDIAN, MODE: derived from mean, median and mode particle diameter
From the text: Our particle size measurements were obtained using a Hiac/Royco Model 9064 sizing counter following manufacturer instructions (400 μm aperture; saturated water with modafinil solution; PDAS program). A summary of the results of these measurements is presented in Table 1, which includes the mean, median and mode particle sizes for six representative lots of modafinil. For comparative purposes, the standard deviation values derived from the mean, median and mode measurements are provided, as are the ratio values of median:mean:mode. Lots E-A, E-B, E-C and E-D were among the so-called early lots, and Lots L-1 and L-2 were among the so-called late lots.
Measurements obtained using instruments and techniques developed by Hiac/Royko are preferred. A Hiac/Royco sizing counter utilizes the principle of light-extinction (obscuration) for particle size detection. The principle involved is that when a particle suspended in a liquid passes through a sensor microcell where a laser beam is directed through a window at the cell, the particles in the fluid block the laser beam from a light-extinction photodiode (photodetector) resulting in a loss of light intensity. This loss of light intensity detected by the photodetector produces an electrical pulse for each particle. These pulses are proportional in amplitude to the light intensity (light extinction) which is a measure of particle size.

humans = settings: cited from earlier work
mice = settings: single administration; cited from earlier work
monkeys = settings: single administration; cited from earlier work
[4] = system: patients or healthy volunteers; settings: doses tested in the foreign studies; cited from earlier work
normal young males = assay: Second United States Phase I study (safety, tolerance, pharmacokinetics); type: in vivo, humans; settings: oral, titrated in 200 mg/day increments, Lots L-1 or L-2
Procedure: After the discrepancy between the foreign and first United States studies was resolved and determined to be related to the differences in particle sizes, a second Phase I study was conducted in the United States, to further determine the clinical safety, tolerance and pharmacokinetic properties of modafinil having a particle size as defined. The second study involved normal young males and an experimental design similar to the first United States study (described above). In the second study, all subjects began at 200 mg/day using modafinil from Lots L-1 or L-2. Dosage was then titrated, in 200 mg/day increments, up to the target dose.

[5] = Modafinil particle size measurement, Coulter Counter TA II sizing counter; type: physicochemical
From the text: The value ranges defined above are based upon measurements made utilizing technology and instruments developed by the Hiac/Royko Division of Pacific Scientific (11801 Tech Road, Silver Spring, Md. 20904, United States of America). As those in the art may appreciate, different instruments manufactured by different companies may provide different measurements for the same particles. For example, in a characteristic modafinil lot (Lot L-2), the mean, median, and mode particle measurements obtained using a Coulter Counter TA II sizing counter were 43, 31, and 29 microns, respectively. Using a Hiac/Royko Model 9064 sizing counter, the mean, median and mode particle measurements obtained for Lot L-2 were 18.75, 31.41 and 25.31 microns, respectively. These differences are presumably predicated upon the different approaches used in measuring particles of such diminutive sizes. Thus, the value ranges provided above are relative and are most preferably to be considered in view of utilization of instruments and operating systems manufactured by Hiac/Royko, for example, and preferably, the Hiac/Royko Model 9064 system sizing counter.
Following this assumption, we compared various parameters from lots of the bulk drug; such comparisons had not been conducted previously, given the assumption that the modafinil being tested in the United States was the “same” as that investigated outside of the United States. Particle size distribution of the bulk drug was among the parameters examined. We have performed modafinil particle size analyses with a Hiac/Royko Model 9064 sizing counter, a Coulter Counter sizing counter, by optical microscopy and by scanning electron microscopy.

SMILES: NC(=O)C[S+]([O-])C(c1ccccc1)c1ccccc1 [Lot L-1, 2-(benzhydrylsulfinyl)acetamide]
- peak plasma modafinil concentration (mean, nine dogs) ([1]; listed as L-1): 10 µg/mL
- adverse events (healthy males): elevations in heart rate and blood pressure
- dissolution rate [2]: faster dissolution rate
- MODAFINIL PARTICLE DIAMETER MEAN ([3]; listed as L-1): 21.40 +/− 2.52 μm
- MODAFINIL PARTICLE DIAMETER MEDIAN ([3]; listed as L-1): 50.18 μm and 50.18 +/− 12.57 μm
- MODAFINIL PARTICLE DIAMETER MODE ([3]; listed as L-1): 56.56 +/− 22.39 μm
- STD DEVIATION BETWEEN MEAN, MEDIAN, MODE ([3]; listed as L-1): 18.73

SMILES: NC(=O)C[S+]([O-])C(c1ccccc1)c1ccccc1 (centres unmarked) [modafinil, 2-(benzhydrylsulfinyl)acetamide]
- treatment of idiopathic hypersomnia and narcolepsy (humans): successfully tested
- locomotor activity (mice): increased locomotor activity
- nocturnal activity (monkeys): increased nocturnal activity
- hemodynamic changes in heart rate or blood pressure [4]: No statistically or clinically significant hemodynamic changes
- maximum tolerable dose (MTD) (normal young males): 600 mg/day
- minimum intolerable dose (normal young males): 800 mg/day

SMILES: NC(=O)C[S+]([O-])C(c1ccccc1)c1ccccc1 [Lot L-2, 2-(benzhydrylsulfinyl)acetamide]
- mean particle measurement [5]: 43 microns
- median particle measurement [5]: 31 microns
- mode particle measurement [5]: 29 microns
- MODAFINIL PARTICLE DIAMETER MEAN ([3]; listed as L-2): 18.75 +/− 1.89 μm
- MODAFINIL PARTICLE DIAMETER MEDIAN ([3]; listed as L-2): 31.41 +/− 3.57 μm
- MODAFINIL PARTICLE DIAMETER MODE ([3]; listed as L-2): 25.31 +/− 1.34 μm
- mean particle measurement ([3]; Hiac/Royko Model 9064): 18.75 microns
- median particle measurement ([3]; Hiac/Royko Model 9064): 31.41 microns
- mode particle measurement ([3]; Hiac/Royko Model 9064): 25.31 microns
- STD DEVIATION BETWEEN MEAN, MEDIAN, MODE ([3]; listed as L-2): 6.36

SMILES: NC(=O)C[S+]([O-])C(c1ccccc1)c1ccccc1 (centres unmarked) [Lot E-C, 2-(benzhydrylsulfinyl)acetamide]
- MODAFINIL PARTICLE DIAMETER MEAN ([3]; listed as E-C): 28.27 +/− 4.10 μm
- MODAFINIL PARTICLE DIAMETER MEDIAN ([3]; listed as E-C): 79.00 +/− 3.78 μm
- MODAFINIL PARTICLE DIAMETER MODE ([3]; listed as E-C): 101.00 +/− 40.92 μm
- STD DEVIATION BETWEEN MEAN, MEDIAN, MODE ([3]; listed as E-C): 37.30

SMILES: NC(=O)C[S+]([O-])C(c1ccccc1)c1ccccc1 (centres unmarked) [Lot E-A, 2-(benzhydrylsulfinyl)acetamide]
- MODAFINIL PARTICLE DIAMETER MEAN ([3]; listed as E-A): 34.60 +/− 5.21 μm
- MODAFINIL PARTICLE DIAMETER MEDIAN ([3]; listed as E-A): 143.65 +/− 3.26 μm
- MODAFINIL PARTICLE DIAMETER MODE ([3]; listed as E-A): 176.48 +/− 5.32 μm
- STD DEVIATION BETWEEN MEAN, MEDIAN, MODE ([3]; listed as E-A): 74.27

SMILES: NC(=O)C[S+]([O-])C(c1ccccc1)c1ccccc1 (centres unmarked) [Lot E-D, 2-(benzhydrylsulfinyl)acetamide]
- peak plasma modafinil concentration (mean, nine dogs) ([1]; listed as E-D): 8 µg/mL
- MODAFINIL PARTICLE DIAMETER MEAN ([3]; listed as E-D): 22.14 +/− 0.76 μm
- MODAFINIL PARTICLE DIAMETER MEDIAN ([3]; listed as E-D): 94.05 μm and 94.05 +/− 13.75 μm
- MODAFINIL PARTICLE DIAMETER MODE ([3]; listed as E-D): 158.63 +/− 63.81 μm
- STD DEVIATION BETWEEN MEAN, MEDIAN, MODE ([3]; listed as E-D): 68.28

SMILES: NC(=O)C[S+]([O-])C(c1ccccc1)c1ccccc1 (centres unmarked) [Lot E-B, 2-(benzhydrylsulfinyl)acetamide]
- peak plasma modafinil concentration (mean, nine dogs) ([1]; listed as E-B): 8 µg/mL
- MODAFINIL PARTICLE DIAMETER MEAN ([3]; listed as E-B): 29.99 +/− 1.09 μm
- MODAFINIL PARTICLE DIAMETER MEDIAN ([3]; listed as E-B): 89.10 μm and 89.10 +/− 4.28 μm
- MODAFINIL PARTICLE DIAMETER MODE ([3]; listed as E-B): 78.59 +/− 2.60 μm
- STD DEVIATION BETWEEN MEAN, MEDIAN, MODE ([3]; listed as E-B): 31.53
